# Results published in patent publication US11324725B2, “Compositions and methods for the inhibition of pruritus” (The United States of America, as represented by the …, priority 2017, dated 2022).
# Entries after “also recorded” stand apart in the source; their conditions may differ. Read-outs that look alike come from different tables or passages of the source.
# Target: T1, hNpr1 (Homo sapiens, UniProt P16066)
# T1 sequence (P16066 33-1061): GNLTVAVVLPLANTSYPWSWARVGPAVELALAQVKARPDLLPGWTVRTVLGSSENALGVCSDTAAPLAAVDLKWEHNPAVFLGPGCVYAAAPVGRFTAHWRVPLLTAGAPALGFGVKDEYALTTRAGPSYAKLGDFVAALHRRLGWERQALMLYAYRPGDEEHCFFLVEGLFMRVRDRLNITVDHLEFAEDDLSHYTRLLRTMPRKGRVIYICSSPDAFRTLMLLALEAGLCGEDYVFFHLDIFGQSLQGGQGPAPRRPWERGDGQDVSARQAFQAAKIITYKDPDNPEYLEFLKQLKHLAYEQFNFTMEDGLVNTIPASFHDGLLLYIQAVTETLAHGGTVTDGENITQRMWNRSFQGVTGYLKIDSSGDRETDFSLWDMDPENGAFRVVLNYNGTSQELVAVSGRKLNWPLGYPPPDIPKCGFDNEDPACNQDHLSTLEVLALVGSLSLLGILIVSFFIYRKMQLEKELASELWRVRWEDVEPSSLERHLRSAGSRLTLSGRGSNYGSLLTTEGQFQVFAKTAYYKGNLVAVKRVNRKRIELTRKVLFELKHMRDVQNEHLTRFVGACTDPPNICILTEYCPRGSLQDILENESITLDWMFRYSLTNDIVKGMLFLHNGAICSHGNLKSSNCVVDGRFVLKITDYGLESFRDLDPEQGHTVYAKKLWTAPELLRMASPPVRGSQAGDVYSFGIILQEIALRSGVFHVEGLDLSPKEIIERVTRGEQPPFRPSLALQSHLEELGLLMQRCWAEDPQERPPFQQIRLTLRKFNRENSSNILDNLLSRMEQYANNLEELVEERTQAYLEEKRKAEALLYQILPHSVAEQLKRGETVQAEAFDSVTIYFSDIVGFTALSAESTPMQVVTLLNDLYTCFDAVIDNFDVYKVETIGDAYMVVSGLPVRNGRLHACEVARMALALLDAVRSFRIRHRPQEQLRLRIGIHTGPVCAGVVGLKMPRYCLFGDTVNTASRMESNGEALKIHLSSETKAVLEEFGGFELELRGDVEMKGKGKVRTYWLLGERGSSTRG
# Test: qHTS GloSensor cGMP assay, hNppa-stimulated HEK-hNpr1-cGMP-sensor cells (1536-well)
# Assay type: cell-based
# Settings: for Imax, HEK-hNpr1-cGMP-sensor cells: −100% = 38.3 μM A-71915; for Inhibition of hNppa-induced hNpr1 activity (in words): HEK-hNpr1-cGMP-sensor cells
# From the text: In order to identify small molecular compounds that inhibit the Npr1 receptor a high-throughput assay to probe inhibition of the receptor guanylate cyclase Npr1 was developed. The assay was designed taking advantage of Promega's GloSensor™ technology (Promega, Madison, Wis.). This technology involves the expression of a cyclic guanosine monophosphate (cGMP) biosensor, comprised of a firefly luciferase variant that was coupled to the cGMP binding domain of human phosphodiesterase 5A, and loading of cells with a cell-permeable luciferase substrate to monitor cGMP production by Npr1 in real time in live cells. Briefly, human embryonic kidney 293 cells stably expressing the human Npr1 and the pGloSensor™-40F cGMP vector (“pGloSensor™-40F”) were generated. Stimulating these cells with the Npr1 agonists human NppA or NppB, luciferase-induced light production could be detected in a dose-dependent manner. HEK293 cells stably expressing human Npr2 and pGS-40F and cells only expressing pGS-40F were also generated to conduct secondary counter screens. In these cells, NppC or sodium nitroprusside were used to stimulate Npr2 or soluble guanylate cyclase which is endogenously expressed in HEK293 cells, respectively. The Npr2-NppC counter screen was employed to search for agents that minimally effected this agonist-receptor interaction. The Npr2-NppC system was used because the side effects of most drugs occur on related receptors. Npr1 and Npr2 are the most related receptors in sequence and function and there are no additional active receptor subtypes in this family of receptors. The procedure is described in detail below.
# Measurement of intracellular cGMP production in HEK-hNpr1-cGMP-sensor cells was scaled to 4 μl volumes in 1536-well format and primary screening was performed in an automated manner in 7- to 11-point qHTS. Cells (1.5×10^3) were plated in assay medium in white, solid bottom TC treated 1536-well plates (Greiner Bio-One) with a Multidrop™ Combi Reagent Dispenser (Thermo Fisher Scientific). Cells were incubated at 37° C., 5% CO2 and 95% humidity for 16 hours and 1 μl of GloSensor™ reagent at a final assay concentration of 2% or assay medium as background control was added to respective wells with a BioRAPTR Flying Reagent Dispenser™ (Beckman Coulter, Schaumburg, Ill.). Cells were incubated at room temperature for 2 hours, protected from light. Compound (23 nl) was transferred by a pintool (Kalypsys, San Diego, Calif.) in the concentration range of […] to 46.1 μM along with DMSO and a titration of A-71915 from top concentration 38.3 μM to 1.7 nM in columns 1-4 of each plate as vehicle and positive controls, respectively. Cells were incubated with compound for 30 minutes at room temperature, protected from light. Pre-agonist luminescence for each plate was read on a ViewLux™ plate reader (PerkinElmer). Human NppA (1 μl) at a final assay concentration of 0.1 nM, or C02-independent media were added to respective wells with a BioRAPTR Flying Reagent Dispenser™ (Beckman Coulter). Plates were incubated for 20 minutes at room temperature, protected from light, and luminescence was read on a ViewLux™ plate reader.
# Pre-agonist and post-agonist data were normalized by plate to corresponding intra-plate controls as described in Inglese et al., PNAS USA, 103: 11473-11478 (2006) (which is incorporated herein by reference, in its entirety). Assay statistics including S:N and Z′ were calculated using the same respective controls. Pre-agonist data were normalized to the average signal of DMSO-treated wells with 2% GoSensor™ reagent as 0% and the average signal of DMSO-treated wells with assay medium as −100% activity. Post-agonist data were normalized to the average signal of DMSO-treated wells with 2% GoSensor™ reagent and 0.1 nM hNppA as 0% and the average signal of wells treated with 38.3 μM A-71915 with 2% GloSensor™ reagent and 0.1 nM hNppA as −100% activity. […]
# [1] = Table 1, cell-based GloSensor assay of hNpr1 inhibition, read-out: IC50 GloSensor™ assay
# [2] = qHTS follow-up, hNppa-stimulated, four-parameter fit, read-out: IC50, HEK-hNpr1-cGMP-sensor cells
# [3] = qHTS follow-up, hNppa-stimulated
compound,measurement,setting,value
"COc1ccccc1-c1n[nH]c2ncc(C(=O)NCc3cccnc3)nc12 [JS-6, 3-(2-methoxyphenyl)-N-(pyridin-3-ylmethyl)-1H-pyrazolo[3,4-b]pyrazine-5-carboxamide]",IC50,[1],11.2 µM
same,IC50,[2],24 ± 1.2 µM
same,"Imax, HEK-hNpr1-cGMP-sensor cells",[3],−15 ± 3%
"O=C(NCc1cccnc1)c1cnc2[nH]nc(-c3ccccc3)c2n1 [JS-7, 3-phenyl-N-(pyridin-3-ylmethyl)-1H-pyrazolo[3,4-b]pyrazine-5-carboxamide]",IC50,[1],22.4 µM
same,IC50,[2],85 ± 22 µM
same,"Imax, HEK-hNpr1-cGMP-sensor cells",[3],−216 ± 97%
"Cc1nn2c(c1-c1ccccc1OCc1ccccc1)N(C(=O)Cc1ccc3c(c1)OCO3)CCC2 [JS-8, 2-(benzo[d][1,3]dioxol-5-yl)-1-(3-(2-(benzyloxy)phenyl)-2-methyl-6,7-dihydropyrazolo[1,5-a]pyrimidin-4(5H)-yl)ethan-1-one]",Inhibition of hNppa-induced hNpr1 activity (in words),,inhibit hNpr1 activity; also recorded: inhibits hNppa-induced hNpr1 activity; also recorded: antagonizes natriuretic peptide-induced activation
same,IC50,[1],8.91 µM
same,IC50,[2],13 ± 1.2 µM
same,"Imax, HEK-hNpr1-cGMP-sensor cells",[3],−122 ± 9%
"Cc1nn2c(c1-c1ccccc1Oc1ccccc1)N(C(=O)Cc1ccc3c(c1)OCO3)CCC2 [JS-10, 2-(benzo[d][1,3]dioxol-5-yl)-1-(2-methyl-3-(2-phenoxyphenyl)-6,7-dihydropyrazolo[1,5-a]pyrimidin-4(5H)-yl)ethan-1-one]",IC50,[1],7.94 µM
same,IC50,[2],17 ± 1.3 µM
same,"Imax, HEK-hNpr1-cGMP-sensor cells",[3],−122 ± 12%
"Cl.O=C1Nc2ccccc2CN(CC2CCCCC2)C12CCNCC2 [JS-1, 4-(cyclohexylmethyl)-4,5-dihydrospiro[benzo[e][1,4]diazepine-3,4′-piperidin]-2(1H)-one hydrochloride]",IC50,[1],7.31 µM
same,IC50,[2],26 ± 1.5 µM
same,"Imax, HEK-hNpr1-cGMP-sensor cells",[3],−119 ± 20%
"N#Cc1ccccc1CN1CCCC(C(=O)NCc2ccccc2)CCNC(=O)CC1 (stereo not drawn) [JS-13, N-benzyl-1-(2-cyanobenzyl)-4-oxo-1,5-diazacycloundecane-8-carboxamide]",IC50,[1],3.98 µM
same,IC50,[2],10 ± 1.2 µM
same,"Imax, HEK-hNpr1-cGMP-sensor cells",[3],−99 ± 6%
"CCC(CC)c1cc([C@H]2CN3CC[C@H]2C[C@@H]3CNS(=O)(=O)c2cccs2)nc(-c2ccncc2)n1 [JS-3, N-(((2R,4S,5R)-5-(6-(pentan-3-yl)-2-(pyridin-4-yl)pyrimidin-4-yl)quinuclidin-2-yl)methyl)thiophene-2-sulfonamide]",IC50,[1],14.1 µM
same,IC50,[2],62 ± 19 µM
same,"Imax, HEK-hNpr1-cGMP-sensor cells",[3],−183 ± 67%
"Cc1nn2c(c1-c1ccccc1OCc1ccccc1)N(C(=O)Cc1ccccn1)CCC2 [JS-9, 1-(3-(2-(benzyloxy)phenyl)-2-methyl-6,7-dihydropyrazolo[1,5-a]pyrimidin-4(5H)-yl)-2-(pyridin-2-yl)ethan-1-one]",IC50,[1],8.91 µM
same,IC50,[2],35 ± 15 µM
same,"Imax, HEK-hNpr1-cGMP-sensor cells",[3],−106 ± 18%
"O=C(Cc1ccc(Cl)cc1)N1Cc2ccccc2CC2(CCCN2CC2CCNC2)C1 (stereo not drawn) [JS-2, 2-(4-chlorophenyl)-1-(1′-(pyrrolidin-3-ylmethyl)-1,5-dihydrospiro[benzo[c]azepine-4,2′-pyrrolidin]-2(3H)-yl)ethan-1-one]",IC50,[1],13 µM
same,IC50,[2],25 ± 1.3 µM
same,"Imax, HEK-hNpr1-cGMP-sensor cells",[3],−102 ± 9%
"Cc1noc(C)c1-c1cc(-c2ccccc2Oc2ccccc2)cn2cncc12 [JS-5, 3,5-dimethyl-4-(6-(2-phenoxyphenyl)imidazo[1,5-a]pyridin-8-yl)isoxazole]",Inhibition of hNppa-induced hNpr1 activity (in words),,inhibit hNpr1 activity; also recorded: inhibits hNppa-induced hNpr1 activity; also recorded: antagonizes natriuretic peptide-induced activation
same,IC50,[1],28.2 µM
same,IC50,[2],32 ± 13 µM
same,"Imax, HEK-hNpr1-cGMP-sensor cells",[3],−127 ± 12%
"COc1cc(CN2CCC(C)(NC(C)=O)CC2)cc(-c2ccncc2)c1 [JS-4, N-(1-(3-methoxy-5-(pyridin-4-yl)benzyl)-4-methylpiperidin-4-yl)acetamide]",IC50,[1],14.1 µM
same,IC50,[2],16 ± 13 µM
same,"Imax, HEK-hNpr1-cGMP-sensor cells",[3],−110 ± 10%
"COc1ccc(C2(C(=O)N3CCC4(CC3)c3nccn3-c3ccccc3CN4C)CC2)cc1 [JS-12, (1-(4-methoxyphenyl)cyclopropyl)(5-methyl-5,6-dihydrospiro[benzo[f]imidazo[1,2-a][1,4]diazepine-4,4′-piperidin]-1′-yl)methanone]",IC50,[1],8.91 µM
same,IC50,[2],16 ± 1.3 µM
same,"Imax, HEK-hNpr1-cGMP-sensor cells",[3],−116 ± 11%
"Cc1cc(CNC(=O)c2ccc3c(c2)n(CC2CC2)c(=O)n3C2CCCCC2)on1 [JS-11, 1-cyclohexyl-3-(cyclopropylmethyl)-N-((3-methylisoxazol-5-yl)methyl)-2-oxo-2,3-dihydro-1H-benzo[d]imidazole-5-carboxamide]",Inhibition of hNppa-induced hNpr1 activity (in words),,inhibit hNpr1 activity; also recorded: inhibits hNppa-induced hNpr1 activity; also recorded: antagonizes natriuretic peptide-induced activation
same,IC50,[1],5.62 µM
same,IC50,[2],21 ± 1.3 µM
same,"Imax, HEK-hNpr1-cGMP-sensor cells",[3],−140 ± 13%
"CN(Cc1ccccc1)C(=O)c1cn2ccnc(-c3ccccc3)c2n1 [JS-14, N-benzyl-N-methyl-8-phenylimidazo[1,2-a]pyrazine-2-carboxamide]",IC50,[1],6.31 µM
same,IC50,[2],117 ± 75 µM
same,"Imax, HEK-hNpr1-cGMP-sensor cells",[3],−286 ± 966%
